{"source": "patent US10851067B2", "about": "“Kv7 channel activators compositions and methods of use” (Knopp Biosciences LLC, priority 2018, dated 2020)", "biological_target": "Kv7.2/7.3 (Homo sapiens, UniProt O43525+O43526)", "assay": "Kv7.2/7.3 Activation Assay, QPatch single concentration screen", "format": "cell-based", "parameters": "host or cells: HEK cells, tetracycline-inducible expression; key: 1.2-2.9 (+); 3-3.9 (++); >4 (+++) fold increase over baseline; O represents open channel at holding potential", "conditions": "Kv7.2/Kv7.3 co-expressing HEK cells, compound concentration 3 μM, steady-state current at end of 2 s pulse to −30 mV", "outline": "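Tetracycline-induced HEK cells expressing human Kv7.2/7.3, recorded 24 h post-induction by automated planar patch clamp. From −80 mV, 2 s steps to −30 mV then 100 ms to −120 mV; compound tested at 3 μM (0.1% DMSO). Steady-state current at end of −30 mV step gives fold increase over baseline.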", "data": [{"smiles": "CC(C)(C)CC(=O)Nc1nc2cc(F)cc(F)c2n1C1CCC1", "note": "[Example 357, N-(1-cyclobutyl-5,7-difluoro-1H-benzo[d]imidazol-2-yl)-3,3-dimethylbutanamide]", "values": [{"measurement": "Kv7.2/7.3 Activity: increase over baseline in current", "result": "+++ (>4 (+++) fold increase over baseline)"}]}, {"smiles": "CC(C)(CC(=O)Nc1nc2c(F)cc(O)cc2n1C1CCC1)C(F)(F)F", "note": "[Example 359, N-(1-cyclobutyl-4-fluoro-6-hydroxy-1H-benzo[d]imidazol-2-yl)-4,4,4-trifluoro-3,3-dimethylbutanamide]", "values": [{"measurement": "Kv7.2/7.3 Activity: increase over baseline in current", "result": "++ (3-3.9 (++))"}]}, {"smiles": "CC1(n2c(NC(=O)CC(C)(C)C(F)(F)F)nc3ccc(C#N)cc32)CCC1", "note": "[Example 361, N-(6-cyano-1-(1-methylcyclobutyl)-1H-benzo[d]imidazol-2-yl)-4,4,4-trifluoro-3,3-dimethylbutanamide]", "values": [{"measurement": "Kv7.2/7.3 Activity: increase over baseline in current", "result": "++ (3-3.9 (++))"}]}, {"smiles": "CC(C)(C)CC(=O)Nc1nc2cc(F)c(C(C)(C)O)c(F)c2n1C1CCC1", "note": "[Example 362, N-(1-cyclobutyl-5,7-difluoro-6-(2-hydroxypropan-2-yl)-1H-benzo[d]imidazol-2-yl)-3,3-dimethylbutanamide]", "values": [{"measurement": "Kv7.2/7.3 Activity: increase over baseline in current", "result": "++ (3-3.9 (++))"}]}, {"smiles": "CC(C)(CC(=O)Nc1nc2cc(F)c(OC(F)F)cc2n1C1CCC1)C1CC1", "note": "[Example 363, N-(1-cyclobutyl-6-(difluoromethoxy)-5-fluoro-1H-benzo[d]imidazol-2-yl)-3-cyclopropyl-3-methylbutanamide]", "values": [{"measurement": "Kv7.2/7.3 Activity: increase over baseline in current", "result": "+ (1.2-2.9 (+))"}]}, {"smiles": "CC(C)(CC(=O)Nc1nc2c(F)cc(C#N)cc2n1C(C)(C)C)C(F)F", "note": "[Example 364, N-(1-(tert-butyl)-6-cyano-4-fluoro-1H-benzo[d]imidazol-2-yl)-4,4-difluoro-3,3-dimethylbutanamide]", "values": [{"measurement": "Kv7.2/7.3 Activity: increase over baseline in current", "result": "++ (3-3.9 (++))"}]}, {"smiles": "C[C@H](C(=O)Nc1nc2ccc(C(C)(C)O)cc2n1C1CC(F)(F)C1)C(C)(C)C", "note": "[Example 365, (S)-N-(1-(3,3-difluorocyclobutyl)-6-(2-hydroxypropan-2-yl)-1H-benzo[d]imidazol-2-yl)-2,3,3-trimethylbutanamide]", "values": [{"measurement": "Kv7.2/7.3 Activity: increase over baseline in current", "result": "+ (1.2-2.9 (+))"}]}, {"smiles": "CC1(n2c(NC(=O)CC(C)(C)C(F)(F)F)nc3ccc(OC(F)F)cc32)CCC1", "note": "[Example 366, N-(6-(difluoromethoxy)-1-(1-methylcyclobutyl)-1H-benzo[d]imidazol-2-yl)-4,4,4-trifluoro-3,3-dimethylbutanamide]", "values": [{"measurement": "Kv7.2/7.3 Activity: increase over baseline in current", "result": "+ (1.2-2.9 (+))"}]}, {"smiles": "CC(C)(CC(=O)Nc1nc2cc(F)c(OC(F)F)cc2n1C1(C)CCC1)C1CC1", "note": "[Example 367, 3-cyclopropyl-N-(6-(difluoromethoxy)-5-fluoro-1-(1-methylcyclobutyl)-1H-benzo[d]imidazol-2-yl)-3-methylbutanamide]", "values": [{"measurement": "Kv7.2/7.3 Activity: increase over baseline in current", "result": "++ (3-3.9 (++))"}]}, {"smiles": "CC(C)(CC(=O)Nc1nc2cc(F)c(OC(F)F)cc2n1C(C)(C)C)C1CC1", "note": "[Example 368, N-(1-(tert-butyl)-6-(difluoromethoxy)-5-fluoro-1H-benzo[d]imidazol-2-yl)-3-cyclopropyl-3-methylbutanamide]", "values": [{"measurement": "Kv7.2/7.3 Activity: increase over baseline in current", "result": "+ (1.2-2.9 (+))"}]}, {"smiles": "C[C@@H](CC(=O)Nc1nc2ccc(C(C)(C)O)cc2n1C1CCC1)c1ccccc1", "note": "[Example 369, (S)-N-(1-cyclobutyl-6-(2-hydroxypropan-2-yl)-1H-benzo[d]imidazol-2-yl)-3-phenylbutanamide]", "values": [{"measurement": "Kv7.2/7.3 Activity: increase over baseline in current", "result": "O"}]}, {"smiles": "CC(CF)(CF)CC(=O)Nc1nc2ccc(C(C)(C)O)cc2n1C1CCC1", "note": "[Example 370, N-(1-cyclobutyl-6-(2-hydroxypropan-2-yl)-1H-benzo[d]imidazol-2-yl)-4-fluoro-3-(fluoromethyl)-3-methylbutanamide]", "values": [{"measurement": "Kv7.2/7.3 Activity: increase over baseline in current", "result": "++ (3-3.9 (++))"}]}, {"smiles": "CC1(C)C[C@@H]1C(=O)Nc1nc2c(F)cc(C#N)cc2n1C(C)(C)C", "note": "[Example 372, (S)-N-(1-(tert-butyl)-6-cyano-4-fluoro-1H-benzo[d]imidazol-2-yl)-2,2-dimethylcyclopropane-1-carboxamide]", "values": [{"measurement": "Kv7.2/7.3 Activity: increase over baseline in current", "result": "++ (3-3.9 (++))"}]}, {"smiles": "CC(C)(C)CC(=O)Nc1nc2c(Cl)cc(C#N)cc2n1C1CCC1", "note": "[Example 377, N-(4-chloro-6-cyano-1-cyclobutyl-1H-benzo[d]imidazol-2-yl)-3,3-dimethylbutanamide]", "values": [{"measurement": "Kv7.2/7.3 Activity: increase over baseline in current", "result": "+++ (>4 (+++) fold increase over baseline)"}]}, {"smiles": "CC(C)(C)n1c(NC(=O)CC(C)(C)C(F)(F)F)nc2c(F)cc(C#N)cc21", "note": "[Example 378, N-(1-(tert-butyl)-6-cyano-4-fluoro-1H-benzo[d]imidazol-2-yl)-4,4,4-trifluoro-3,3-dimethylbutanamide]", "values": [{"measurement": "Kv7.2/7.3 Activity: increase over baseline in current", "result": "+++ (>4 (+++) fold increase over baseline)"}]}, {"smiles": "CC(C)(CC(=O)Nc1nc2ccc(C#N)cc2n1C1(C)CCC1)C1CC1", "note": "[Example 379, N-(6-cyano-1-(1-methylcyclobutyl)-1H-benzo[d]imidazol-2-yl)-3-cyclopropyl-3-methylbutanamide]", "values": [{"measurement": "Kv7.2/7.3 Activity: increase over baseline in current", "result": "++ (3-3.9 (++))"}]}, {"smiles": "CC(C)(O)CC(=O)Nc1nc2cccc(OC(F)(F)F)c2n1C1CCC1", "note": "[Example 380, N-(1-cyclobutyl-7-(trifluoromethoxy)-1H-benzo[d]imidazol-2-yl)-3-hydroxy-3-methylbutanamide]", "values": [{"measurement": "Kv7.2/7.3 Activity: increase over baseline in current", "result": "+ (1.2-2.9 (+))"}]}, {"smiles": "CC(C)(C)CC(=O)Nc1nc2c(OC(F)F)cc(C#N)cc2n1C1(C)CCC1", "note": "[Example 381, N-(6-cyano-4-(difluoromethoxy)-1-(1-methylcyclobutyl)-1H-benzo[d]imidazol-2-yl)-3,3-dimethylbutanamide]", "values": [{"measurement": "Kv7.2/7.3 Activity: increase over baseline in current", "result": "++ (3-3.9 (++))"}]}, {"smiles": "COc1cc(Br)cc2c1nc(NC(=O)CC(C)(C)C)n2C1CCC1", "note": "[Example 382, N-(6-bromo-1-cyclobutyl-4-methoxy-1H-benzo[d]imidazol-2-yl)-3,3-dimethylbutanamide]", "values": [{"measurement": "Kv7.2/7.3 Activity: increase over baseline in current", "result": "+++ (>4 (+++) fold increase over baseline)"}]}, {"smiles": "C[C@H](C(=O)Nc1nc2ccc(C(C)(C)O)cc2n1C1(C)CCC1)C(C)(C)C", "note": "[Example 383, (S)-N-(6-(2-hydroxypropan-2-yl)-1-(1-methylcyclobutyl)-1H-benzo[d]imidazol-2-yl)-2,3,3-trimethylbutanamide]", "values": [{"measurement": "Kv7.2/7.3 Activity: increase over baseline in current", "result": "++ (3-3.9 (++))"}]}, {"smiles": "CC(C)(O)c1cc(F)c2nc(NC(=O)CC(C)(C)C(F)(F)F)n(C3CCC3)c2c1F", "note": "[Example 385, N-(1-cyclobutyl-4,7-difluoro-6-(2-hydroxypropan-2-yl)-1H-benzo[d]imidazol-2-yl)-4,4,4-trifluoro-3,3-dimethylbutanamide]", "values": [{"measurement": "Kv7.2/7.3 Activity: increase over baseline in current", "result": "O"}]}, {"smiles": "CC(C)(O)c1ccc2nc(NC(=O)CC(C)(C)C(F)F)n(C3CCC3)c2c1", "note": "[Example 386, N-(1-cyclobutyl-6-(2-hydroxypropan-2-yl)-1H-benzo[d]imidazol-2-yl)-4,4-difluoro-3,3-dimethylbutanamide]", "values": [{"measurement": "Kv7.2/7.3 Activity: increase over baseline in current", "result": "+ (1.2-2.9 (+))"}]}, {"smiles": "CC(C)(C)CC(=O)Nc1nc2ccc(C#N)c(F)c2n1C(C)(C)C", "note": "[Example 387, N-(1-(tert-butyl)-6-cyano-7-fluoro-1H-benzo[d]imidazol-2-yl)-3,3-dimethylbutanamide]", "values": [{"measurement": "Kv7.2/7.3 Activity: increase over baseline in current", "result": "++ (3-3.9 (++))"}]}, {"smiles": "CC(C)(C)CC(=O)Nc1nc2c(F)cc(OCc3ccccc3)cc2n1C1CCC1", "note": "[Example 388, N-(6-(benzyloxy)-1-cyclobutyl-4-fluoro-1H-benzo[d]imidazol-2-yl)-3,3-dimethylbutanamide]", "values": [{"measurement": "Kv7.2/7.3 Activity: increase over baseline in current", "result": "+++ (>4 (+++) fold increase over baseline)"}]}, {"smiles": "CC(C)(C)CC(=O)Nc1nc2ccc(OC(F)F)cc2n1C1CCC1", "note": "[Example 389, N-(1-cyclobutyl-6-(difluoromethoxy)-1H-benzo[d]imidazol-2-yl)-3,3-dimethylbutanamide]", "values": [{"measurement": "Kv7.2/7.3 Activity: increase over baseline in current", "result": "++ (3-3.9 (++))"}]}, {"smiles": "CC(C)(CC(=O)Nc1nc2c(F)cc(OC(F)F)cc2n1C1CCC1)C1CC1", "note": "[Example 390, N-(1-cyclobutyl-6-(difluoromethoxy)-4-fluoro-1H-benzo[d]imidazol-2-yl)-3-cyclopropyl-3-methylbutanamide]", "values": [{"measurement": "Kv7.2/7.3 Activity: increase over baseline in current", "result": "+ (1.2-2.9 (+))"}]}, {"smiles": "CC1(CC(=O)Nc2nc3ccc(C(C)(C)O)cc3n2C2(C)CCC2)CC1", "note": "[Example 391, N-(6-(2-hydroxypropan-2-yl)-1-(1-methylcyclobutyl)-1H-benzo[d]imidazol-2-yl)-2-(1-methylcyclopropyl)acetamide]", "values": [{"measurement": "Kv7.2/7.3 Activity: increase over baseline in current", "result": "+ (1.2-2.9 (+))"}]}, {"smiles": "COc1cc(Br)cc2c1nc(NC(=O)CC(C)(C)C)n2C1(C)CCC1", "note": "[Example 392, N-(6-bromo-4-methoxy-1-(1-methylcyclobutyl)-1H-benzo[d]imidazol-2-yl)-3,3-dimethylbutanamide]", "values": [{"measurement": "Kv7.2/7.3 Activity: increase over baseline in current", "result": "+++ (>4 (+++) fold increase over baseline)"}]}, {"smiles": "CC(C)(C)CC(=O)Nc1nc2ccc(OC(F)F)cc2n1C(C)(C)C", "note": "[Example 393, N-(1-(tert-butyl)-6-(difluoromethoxy)-1H-benzo[d]imidazol-2-yl)-3,3-dimethylbutanamide]", "values": [{"measurement": "Kv7.2/7.3 Activity: increase over baseline in current", "result": "+++ (>4 (+++) fold increase over baseline)"}]}, {"smiles": "COCc1c(F)ccc2nc(NC(=O)CC(C)(C)C)n(C3CCC3)c12", "note": "[Example 394, N-(1-cyclobutyl-6-fluoro-7-(methoxymethyl)-1H-benzo[d]imidazol-2-yl)-3,3-dimethylbutanamide]", "values": [{"measurement": "Kv7.2/7.3 Activity: increase over baseline in current", "result": "O"}]}, {"smiles": "COCc1c(Cl)ccc2nc(NC(=O)CC(C)(C)C)n(C3CCC3)c12", "note": "[Example 399, N-(6-chloro-1-cyclobutyl-7-(methoxymethyl)-1H-benzo[d]imidazol-2-yl)-3,3-dimethylbutanamide]", "values": [{"measurement": "Kv7.2/7.3 Activity: increase over baseline in current", "result": "+++ (>4 (+++) fold increase over baseline)"}]}, {"smiles": "CC(C)(C)CC(=O)Nc1nc2ccc(C#N)cc2n1C(C)(C)C(F)(F)F", "note": "[Example 401, N-(6-cyano-1-(1,1,1-trifluoro-2-methylpropan-2-yl)-1H-benzo[d]imidazol-2-yl)-3,3-dimethylbutanamide]", "values": [{"measurement": "Kv7.2/7.3 Activity: increase over baseline in current", "result": "++ (3-3.9 (++))"}]}]}
